Data on 1 compound can be found in US11939361B2, “Compositions of peptide inhibitors of Interleukin-23 receptor” (Janssen Pharmaceutica NV, priority 2020, dated 2024).

Data set [1] in a line: Solubility of acetate form of SEQ ID NO: 1 in various media. It counts as physicochemical. As for the experimental part:
An acetate form of SEQ ID NO: 1 prepared according to Example 1 was evaluated for solubility under various conditions.

Data set [2] is described as follows: Storage of phosphate buffered solution. The following applies: 0.33-33 mg/mL in 50 mM sodium phosphate buffer, 2-8° C. The data set is classed as physicochemical. As for the experimental part: The resultant solution can be stored at 2-8° C. for up to 4 weeks.
The nature of data set [3]: Rat PK Study 2: effect of NaC10 concentration, IC injection. The data set is classed as in vivo, rats. Particulars: peptide 10 mg/Kg. The source says: In this example, the effect of the concentration of NaCl0 was studied.
A short description of data set [4]: Dog PK Study: single PO dose of tablets/solution. The following applies: peptide 10 mg/Kg, NaC10 50 mg/Kg.
Method: Poloxamer P188 was also assessed, in combination with NaCl0 with the aim of determining potential synergism. […] Control tablet cores (immediate-release) without the absorption enhancers were also manufactured and dosed as control in the study.
Following dosing of tablets, 10 mL additional water was given. The normal dry diet was returned 2 hours post-dose.
Data set [5] has as its system IL-23-induced IL-17A secretion. Put plainly: In vitro rat whole blood assay of IL-23-induced IL-17A secretion. It counts as cell-based. Particulars: as quoted in Example 12.

Consider `CC(=O)NCCCC[C@@H]1NC(=O)[C@H](Cc2c[nH]c3c(C)cccc23)NC(=O)[C@H]([C@@H](C)O)NC(=O)[C@H](CC(N)=O)NC(=O)[C@@H](NC(C)=O)C(C)(C)SSC(C)(C)[C@@H](C(=O)N[C@@H](Cc2ccc(OCCN)cc2)C(=O)N[C@@H](Cc2ccc3ccccc3c2)C(=O)NC2(C(=O)N[C@@H](CCC(=O)O)C(=O)N[C@@H](CC(N)=O)C(=O)N[C@@H](Cc3cccnc3)C(=O)N(C)CC(N)=O)CCOCC2)NC1=O` [Acetate Form of SEQ ID NO: 1], for which the solubility (commonly the concentration that dissolves in the medium under given conditions) in data set [1] (0.01 N HCl, aqueous buffer) was 95 mg/mL; in data set [1] (0.1 N HCl, aqueous buffer), 780 mg/mL; in data set [1] (0.1 N NaOH, aqueous buffer) it was over 870 mg/mL; in data set [1] (aqueous buffer, Borate buffer pH 9), over 220 mg/mL; in data set [1] (aqueous buffer, Citrate buffer pH 2), 270 mg/mL; in data set [1] (aqueous buffer, Citrate buffer pH 5), 6.9 mg/mL. The solubility in data set [1] (aqueous buffer, Phosphate buffer pH 12) is over 440 mg/mL; in data set [1] (aqueous buffer, phosphate buffer pH 7), 7.5 mg/mL; in data set [1] (water), 35 mg/mL. Also, the “Storage time of solution” value in data set [2] is “up to 4 weeks”. Besides, in data set [3] (NaC10 20 mg/Kg), the “increase of systemic exposure given by NaC10” value is recorded as “minimal”. Further, in data set [3] (NaC10 50 mg/Kg), the “absorption enhancement by NaC10” value is given as “highest absorption enhancement”. The “oral bioavailability on increasing NaC10” value in data set [3] (NaC10 100 mg/Kg or 200 mg/Kg) is “did not further increase”. In addition, the “effect of NaC10 on systemic exposure” value in data set [3] (all NaC10 concentrations tested (20, 50, 200 mg/Kg)) was “increased”. The “effect of NaC10 on systemic exposure, all tablets” value in data set [4] is recorded as “increased”. In data set [5], the “IC50 values presented in Table 14” value was 0.10 to 0.47 ng/mL. In data set [5] (read-out: IC50 values presented in Table 14), the 50% inhibitory concentration (IC50) (usually the concentration that inhibits the measured activity by half) lay within 0.054 to 0.5 nM.
